According to article PMC12010937, “Evaluation of FXR Activity in Pollutants Identified in Sewage Sludge and Subsequent in Vitro and in Vivo Characterization of Metabolic Effects of Triphenyl Phosphate” (Environmental Health Perspectives, 2025):
Values joined by “and” are separate entries in the source; they are usually repeats but may differ in a detail not shown here. Identical values can stand only once. “Also recorded” adds a separate entry of the source.

Tests used:
[1] = target: T1, FXR (pCDNA3.1-hFXR, FXRE-luc) (Homo sapiens, UniProt Q96RI1); assay: cell-based; assay type: cell-based
T1 construct: host or cells: HEK 293T
T1 sequence (Q96RI1 1-486): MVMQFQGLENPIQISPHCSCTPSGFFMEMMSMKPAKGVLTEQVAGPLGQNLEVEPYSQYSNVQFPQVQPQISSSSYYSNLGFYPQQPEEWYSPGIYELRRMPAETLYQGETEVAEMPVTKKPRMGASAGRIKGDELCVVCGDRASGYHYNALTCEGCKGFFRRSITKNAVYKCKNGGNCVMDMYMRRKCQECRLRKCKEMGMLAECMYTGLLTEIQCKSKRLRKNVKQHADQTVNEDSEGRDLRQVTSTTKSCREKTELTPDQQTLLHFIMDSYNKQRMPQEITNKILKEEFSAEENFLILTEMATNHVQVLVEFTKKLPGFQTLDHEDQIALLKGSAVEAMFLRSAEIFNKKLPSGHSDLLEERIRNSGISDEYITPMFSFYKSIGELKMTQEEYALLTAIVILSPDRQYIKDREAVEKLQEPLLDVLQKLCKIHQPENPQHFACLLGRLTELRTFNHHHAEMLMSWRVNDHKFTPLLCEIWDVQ

[2] = test system: FXR, PXR and PPARγ target genes in liver; assay: qPCR of genes in mouse liver; assay type: in vivo, C57BL/6N mice
Method: Male C57BL/6N mice (8 wk of age) were purchased from Beijing Vital River Laboratory Inc. and acclimated to the environment for 2 wk before they were used for experiments. The environment was maintained at 22°C, in a 12-h light/dark cycle with 50%–60% relative humidity and fed standard chow diets. Because the male mice are more sensitive to metabolic disease than female mice and the estrous cycle of female mice may induce variability to the metabolic phenotypes,[50] only male mice were used in this study. Animals were randomly assigned to control or TPHP treatment groups (five mice per group). Mice were exposed to corn oil (control) purchased from Sigma-Aldrich (C8267) or TPHP (dissolved in corn oil) at 10mg/kg or 50mg/kg body weight (BW) by daily oral gavage for 35 d. The administered volume was 5mL/kg BW. The TPHP corn oil solutions for administration were prepared by dissolving the TPHP in corn oil, and the solutions were stored at −20°C and freshly prepared each week. BW was measured every other day during the dosing period. At the end of experiments, the mice were anesthetized with isoflurane, then blood was collected from the retro-orbital sinus via orbital puncture, and then the mice were euthanized by cervical dislocation. The liver was isolated, weighted, and divided into three fractions: one fraction was fixed with 4% neutral-buffered formalin for Oil Red staining; another fraction was frozen in liquid nitrogen and stored at −80°C for the BA targeted analysis, lipidomic analysis, and qPCR analysis; the remaining fraction was embedded with 3% carboxymethylcellulose (CMC) for MSI analysis. The ileum was also isolated, weighted, and stored at −80°C for the BA targeted analysis and qRT-PCR analysis. Cecal contents were collected from the cecum of mice for the 16S rRNA gene sequencing analysis. Animal study protocols were approved by the Animal Care and Use Committee of Peking University (approval number: Urban-WanY-1).
Total RNA was extracted from cells or mice tissues (liver and ileum) using the Total RNA kit (Tiangen Biotech), and concentration and quality of the RNA were determined using a SMA4000 Nanodrop spectrophotometer (Merinton). Then, the RNA was reverse transcribed into cDNA by HiScript III RT SuperMix for qPCR (Vazyme). In addition, qPCR was performed in the Mx3005P real-time PCR system (Agilent Technologies) with the ChamQ SYBR qPCR Master Mix Kit (Vazyme). Reactions were carried out for 5 min at 95°C, followed by 40 cycles of two-step PCR for 10 s at 95°C and 30 s at 60°C. The relative RNA expression levels of the target genes were normalized to GAPDH using the 2^−ΔΔCt method.

## O=P(Oc1ccccc1)(Oc1ccccc1)Oc1ccccc1 [TPHP, triphenyl phosphate]
[1]
  IC50: 27.4 µM
[1]; 0.01 μM, dose-response, replicates
  Relative luciferase activity (%): 85.51% and 90.10% and 106.89%
[1]; 0.1 μM, dose-response, replicates
  Relative luciferase activity (%): 104.74% and 89.81%
[1]; 0.5 μM, dose-response, replicates
  Relative luciferase activity (%): 73.91% and 74.66%
[1]; 1 μM, dose-response, replicates
  Relative luciferase activity (%): 77.48% and 70.96%
[1]; 5 μM, dose-response, replicates
  Relative luciferase activity (%): 51.88% and 54.98% and 76.88%
[1]; 10 μM and 25 μM, in the presence of 50 μM CDCA, HEK 293T
  Luciferase activity compared with DMSO control (in words): significantly less luciferase activity; also recorded: lowest luciferase activity
[1]; 10 μM compound in the presence of 50 μM CDCA, DMSO 0%, 50 μM CDCA 100%, HEK 293T, replicates
  Relative luciferase activity (%): 2.5% and 7.4% and 17.9%
[1]; 10 μM, dose-response, replicates
  Relative luciferase activity (%): 46.34% and 52.21%
[1]; 25 μM compound in the presence of 50 μM CDCA, DMSO 0%, 50 μM CDCA 100%, HEK 293T, replicates
  Relative luciferase activity (%): -6.4% and -7.6% and -3.9%
[1]; 25 μM, dose-response, replicates
  Relative luciferase activity (%): 2.58% and 9.91% and 5.01%
[1]; 50 μM, dose-response, replicates
  Relative luciferase activity (%): -21.44% and -22.90% and -18.55%
[1]; HEK 293T DLR assay, maximum exposure concentration
  Rate of FXR inhibition at the maximum exposure concentration: 120.96%
[1]; HEK-293T, read-out: Relative luciferase activity (%), 0.1 μM, dose-response, replicates
  activity at 0.1 µM: 87.5%
[1]; HEK-293T, read-out: Relative luciferase activity (%), 0.5 μM, dose-response, replicates
  activity at 0.5 µM: 82.3%
[1]; HEK-293T, read-out: Relative luciferase activity (%), 1 μM, dose-response, replicates
  activity at 1 µM: 63.9%
[1]; HEK-293T, read-out: Relative luciferase activity (%), 10 μM, dose-response, replicates
  activity at 10 µM: 39.7%
[2]; TPHP-H: 50 mg/kg, 35 d
  Relative mRNA expression of Acc1 in liver: 1.30 fold changes and 1.85 fold changes and 1.75 fold changes
  Relative mRNA expression of Acly in liver: 1.31 fold changes and 1.49 fold changes and 1.68 fold changes
  Relative mRNA expression of Bsep in liver: 0.59 fold changes and 0.34 fold changes and 0.54 fold changes
  Relative mRNA expression of Cd36 in liver: 0.97 fold changes and 1.09 fold changes and 0.65 fold changes
  Relative mRNA expression of Cpt1a in liver: 0.75 fold changes and 0.89 fold changes and 1.31 fold changes
  Relative mRNA expression of Cyp2b10 in liver: 1.32 fold changes and 0.97 fold changes and 0.68 fold changes
  Relative mRNA expression of Cyp3a11 in liver: 0.93 fold changes and 0.74 fold changes and 0.82 fold changes
  Relative mRNA expression of Cyp7a1 in liver: 2.89 fold changes and 2.77 fold changes and 3.66 fold changes
  Relative mRNA expression of Cyp7b1 in liver: 1.54 fold changes and 0.80 fold changes and 0.81 fold changes
  Relative mRNA expression of Cyp8b1 in liver: 1.26 fold changes and 1.33 fold changes and 0.86 fold changes
  Relative mRNA expression of Cyp27a1 in liver: 0.93 fold changes and 1.23 fold changes and 1.03 fold changes
  Relative mRNA expression of Dgat2 in liver: 1.67 fold changes and 1.99 fold changes and 1.63 fold changes
  Relative mRNA expression of Fae in liver: 1.30 fold changes and 0.87 fold changes and 0.66 fold changes
  Relative mRNA expression of Hmgcs2 in liver: 0.85 fold changes and 0.69 fold changes and 1.21 fold changes
  Relative mRNA expression of Mdr3 in liver: 0.80 fold changes and 0.96 fold changes and 0.74 fold changes
  Relative mRNA expression of Mrp2 in liver: 0.83 fold changes and 0.55 fold changes and 0.76 fold changes
  Relative mRNA expression of Mrp3 in liver: 1.11 fold changes and 0.88 fold changes and 0.87 fold changes
  Relative mRNA expression of Mrp4 in liver: 0.96 fold changes and 0.80 fold changes and 0.67 fold changes
  Relative mRNA expression of Ntcp in liver: 1.19 fold changes and 1.58 fold changes and 1.51 fold changes
  Relative mRNA expression of Scd1 in liver: 0.43 fold changes and 0.64 fold changes and 0.58 fold changes
  Relative mRNA expression of Srebp1c in liver: 2.82 fold changes and 2.12 fold changes and 2.38 fold changes
[2]; TPHP-L: 10 mg/kg, 35 d
  Relative mRNA expression of Acc1 in liver: 1.60 fold changes and 1.11 fold changes and 0.88 fold changes
  Relative mRNA expression of Acly in liver: 1.63 fold changes and 1.57 fold changes and 1.51 fold changes
  Relative mRNA expression of Bsep in liver: 0.72 fold changes and 0.48 fold changes and 0.41 fold changes
  Relative mRNA expression of Cd36 in liver: 1.18 fold changes and 0.78 fold changes and 1.04 fold changes
  Relative mRNA expression of Cpt1a in liver: 0.92 fold changes and 1.04 fold changes and 0.99 fold changes
  Relative mRNA expression of Cyp3a11 in liver: 1.21 fold changes and 0.78 fold changes and 0.67 fold changes
  Relative mRNA expression of Cyp7b1 in liver: 0.65 fold changes and 1.07 fold changes and 0.98 fold changes
  Relative mRNA expression of Cyp8b1 in liver: 1.44 fold changes and 1.13 fold changes and 0.80 fold changes
  Relative mRNA expression of Cyp27a1 in liver: 1.02 fold changes and 1.04 fold changes and 0.92 fold changes
  Relative mRNA expression of Dgat2 in liver: 1.22 fold changes and 1.92 fold changes and 1.34 fold changes
  Relative mRNA expression of Fae in liver: 1.41 fold changes and 0.87 fold changes and 0.80 fold changes
  Relative mRNA expression of Hmgcs2 in liver: 0.83 fold changes and 1.02 fold changes and 0.93 fold changes
  Relative mRNA expression of Mdr3 in liver: 1.09 fold changes and 0.85 fold changes and 0.67 fold changes
  Relative mRNA expression of Mrp2 in liver: 0.71 fold changes and 1.09 fold changes and 0.57 fold changes
  Relative mRNA expression of Mrp3 in liver: 0.90 fold changes and 0.72 fold changes and 0.89 fold changes
  Relative mRNA expression of Mrp4 in liver: 0.86 fold changes and 0.84 fold changes and 0.91 fold changes
  Relative mRNA expression of Ntcp in liver: 1.52 fold changes and 1.66 fold changes and 1.26 fold changes
  Relative mRNA expression of Scd1 in liver: 0.40 fold changes and 0.59 fold changes and 0.35 fold changes
  Relative mRNA expression of Srebp1c in liver: 2.35 fold changes and 1.89 fold changes and 2.01 fold changes
[2]; TPHP-exposed mice
  Expression of FXR-regulated lipogenesis genes (Srebp1c, Dgat2, Acly, Acc1) in liver (in words): up-regulated
[2]; TPHP-exposure groups
  Expression of Scd1 in the liver (in words): significantly lower
[2]; after TPHP exposure
  Expression of PXR and PPARγ target genes in the liver, except Scd1 (in words): not significantly different
[2]; both TPHP-L and TPHP-H groups
  Expression of Cyp7a1 in liver, higher than in control group: approximately 2 folds
